Read-outs that look alike come from different tables or passages of the source.
Experiments:
[1] = test system: cellular proliferation driven by mutant JAK2 or mutant MPL; test: Cellular proliferation driven by mutant JAK2 or mutant MPL; type: cell-based; settings: cellular assays
JAK2 signaling = test: Cellular assay of JAK2 signaling; type: cell-based; settings: cellular assays
[2] = test system: PD-L1 expression in lymphoma tumor cells; settings: cited from earlier work
[3] = test system: intermediate-1 with symptoms, intermediate-2 or high-risk MPN-associated myelofibrosis; settings: cited from earlier work
JAK2V617F [4] = settings: non-clinical models of MF; cited from earlier work
[5] = test system: cells expressing constitutively active JAK2; test: Apoptosis in cells expressing constitutively active JAK2; type: cell-based; settings: cellular assays
[6] = test system: hematopoietic progenitors isolated from myeloproliferative neoplasm (MPN) patients; test: Erythroid colony formation of hematopoietic progenitors; type: cell-based, human
T cell development = settings: non-clinical data; cited from earlier work
[7] = test system: graft-versus-host disease (GVHD); settings: cited from earlier work
JAK2V617F [8] = settings: MF patients; cited from earlier work
circulating cytokines = settings: MF patients not previously treated with JAK inhibitors; cited from earlier work
[9] = test system: intermediate-2 or high-risk MF; settings: cited from earlier work
MF = settings: week 24; previous ruxolitinib treatment; cited from earlier work
myelofibrosis [10] = settings: week 24, subgroup with prior ruxolitinib, cited from earlier work
[11] = test system: MPN-associated myelofibrosis; settings: cited from earlier work
bone marrow fibrosis = settings: at 24 months; cited from earlier work
[12] = test system: intermediate or high-risk MPN-associated myelofibrosis (MF); settings: at 24 weeks, COMFORT-I; cited from earlier work
[13] = test system: intermediate or high-risk MPN-associated myelofibrosis (MF); settings: cited from earlier work
myelofibrosis [14] = settings: cited from earlier work
[15] = test system: PD-L1 expression in MPN myeloid cells; settings: cited from earlier work
[16] = patients previously treated with ruxolitinib
[17] = ruxolitinib therapy, compared with BAT

## Cc1cnc(Nc2ccc(OCCN3CCCC3)cc2)nc1Nc1cccc(S(=O)(=O)NC(C)(C)C)c1 [Compound I, fedratinib]
[1]
  effect on cellular proliferation driven by mutant JAK2 or mutant MPL: inhibits
JAK2 signaling
  effect on JAK2 signaling: inhibits JAK2 signaling
[2]
  effect on PD-L1 expression: modulate PD-L1 expression
[3]; 97 patients
  patients with at least 1 TEAE (all grades): 97 patients
[3]; all grades
  TEAE anemia: 48.5%
  TEAE diarrhea: 61.9%
  TEAE nausea: 55.7%
  TEAE thrombocytopenia: 26.8%
  TEAE vomiting: 41.2%
[3]; in vivo
  Grade 3 or 4 anemia: Thirty-eight and one-tenth
  Grade 3 or 4 thrombocytopenia: 21.6%
  grade 5 hematologic TEAEs: No grade 5 hematologic TEAEs were reported
  patients reporting Grade 3 or 4 TEAEs: 62.9%
[3]; [16]
  overall spleen response rate (≥35% reduction from baseline in spleen volume to the End of Cycle 6): 55.4%
  subjects achieving a ≥50% reduction in TSS: 25.6%
JAK2V617F [4]
  JAK2V617F frequency: decrease JAK2V617F frequency
[5]
  apoptosis in cells expressing constitutively active JAK2: induces apoptosis
[6]
  erythroid colony formation of hematopoietic progenitors: inhibits erythroid colony formation
T cell development
  effect on T cell development: weak effect
[7]; non-clinical data
  effect on GVHD: weak effect
JAK2V617F [8]
  JAK2V617F frequency: decrease JAK2V617F frequency
Circulating cytokines
  effect on circulating cytokines: modulate circulating cytokines
[9]; 400 mg daily, all grades
  TEAE diarrhea: 65.6%
  TEAE fatigue: 15.6%
  TEAE nausea: 63.5%
  TEAE peripheral edema: 15.6%
  TEAE vomiting: 41.7%
[9]; 400 mg daily
  TEAE anemia (G3 and G4): 42.7%
  response rate at Cycle 6 as recommended by IWG-MRT (regardless of confirmation): 46.9%
  response rate per primary endpoint (≥35% reduction in spleen volume to End of Cycle 6, confirmed 4 weeks later by MRI): 36.5%
[9]; 400 mg
  TEAEs leading to permanent treatment discontinuation: 27.1%
  subjects achieving a ≥50% reduction in TSS: 36.3%
  subjects reporting Grade 3 or 4 TEAEs: 70.8%
  treatment-emergent serious adverse events (SAEs): 38.5%
[9]; 500 mg daily
  response rate at Cycle 6 as recommended by IWG-MRT (regardless of confirmation): 49.5%
  response rate per primary endpoint (≥35% reduction in spleen volume to End of Cycle 6, confirmed 4 weeks later by MRI): 40.2%
[9]; 500 mg
  TEAEs leading to permanent treatment discontinuation: 36.1%
  subjects achieving a ≥50% reduction in TSS: 34.1%
  subjects reporting Grade 3 or 4 TEAEs: 78.4%
  treatment-emergent serious adverse events (SAEs): 44.3%
[9]; responders from both active groups (400-mg and 500-mg)
  median duration of response (≥35% reduction in spleen volume): 10.4 months

## N#CCNC(=O)c1ccc(-c2ccnc(Nc3ccc(N4CCOCC4)cc3)n2)cc1 [momelotinib]
MF
  subjects with spleen volume response of 35% or more: 7%

## C1=C/COCc2cc(ccc2OCCN2CCCC2)Nc2nccc(n2)-c2cccc(c2)COC/1 [pacritinib]
Myelofibrosis [10]; 200 mg twice daily
  subjects with spleen volume response of 35% or more: 13%
Myelofibrosis [10]; 400 mg once daily
  subjects with spleen volume response of 35% or more: 6%

## N#CC[C@H](C1CCCC1)n1cc(-c2ncnc3[nH]ccc23)cn1 [ruxolitinib, (3R)-3-cyclopentyl-3-[4-(7H-pyrrolo[2,3-d]pyrimidin-4-yl)pyrazol-1-yl]propanenitrile]
[11]; in vivo
  time after therapy initiation within which responses are typically observed: 3-6 months
[11]; [17]
  treatment-associated anemia: 40.4%
  treatment-associated thrombocytopenia: 44.5%
Bone marrow fibrosis
  subjects with improvement in bone marrow fibrosis: 15%
[12]
  proportion of subjects exhibiting a ≥35% reduction in spleen volume as measured by MRI: 41.9%
  subjects with >50% improvement in MFSAF Total Symptom Score (TSS): 45.9%
[13]; at 48 weeks, COMFORT-II
  proportion of subjects exhibiting a ≥35% reduction in spleen volume as measured by MRI: 28.5%
[13]; at 144 weeks, COMFORT-II 3-year follow-up
  Kaplan-Meier estimated probability of survival: 81%
Myelofibrosis [14]; after ruxolitinib discontinuation
  median survival of relapsed and refractory patients who discontinued ruxolitinib: 6 months
Myelofibrosis [14]; median follow-up of 10 months from stopping ruxolitinib
  patients remaining alive: 34%
[7]; preclinical and clinical data
  effect on graft-versus-host disease (GVHD): suppressing graft-versus-host disease
[15]
  effect on PD-L1 expression: modulate PD-L1 expression
